Data taken from patent US11061016B2, “In vitro model for pathological or physiologic conditions” (HemoShear, LLC, priority 2012, dated 2021).
Read-outs that look alike come from different tables or passages of the source.

Assays:
primary rat hepatocytes [1] = assay: Gluconeogenesis assay (AMPLEX RED glucose); assay type: cell-based; conditions: for Effect (% Change) on glucose levels: insulin 2 nM or glucagon 100 nM; for glucose levels: decreased by (insulin) / increased by (glucagon) / glucose levels: decreased by (insulin) / increased by further (glucagon): insulin 2 nM, glucagon 100 nM; for glucose levels: decreased by (insulin) / increased by further (glucagon): substrate glycerol
cytochrome p450 1A/1B = assay: Cytochrome p450 activity assay (P450-GLO), 1A/1B
Procedure: (§3) Porous membrane segments roughly 2 cm^2 in area were excised and transferred to standard 24-well plates alongside corresponding static cultures. The cells were incubated with 500 μl of hepatocyte media containing substrates from commercially available P450-GLO kits (kits for luminescent cytochrome p450 assays) at the manufacturer-recommended concentrations. After 4 hours, the media was transferred to 96-well plates and assayed for luminescent metabolites to reflect cytochrome p450 activity as per the manufacturer protocol.
(§4) After 48 hours, on day 7, segments of the porous membrane from the devices containing hepatocytes cultured under controlled hemodynamics that were roughly 2.0 cm^2 in area were excised and transferred to standard 24-well plates and treated with substrates for the Cyp p450 enzymes in parallel to corresponding static cultures treated with the different agents. Cytochrome p450 assays were done on day 7 using commercially available P450-GLO kits. After 4 hours the media was transferred to 96-well plates and assayed for luminescent metabolites to reflect cytochrome p450 activity.

rat hepatocytes = assay: RT-PCR of oxidative stress-related and MRP genes; conditions: controlled hemodynamic conditions
primary rat hepatocytes [2] = assay: Biliary activity stain (CDFDA), canalicular pattern; assay type: cell-based; conditions: controlled hemodynamic conditions, 48 hours
Text: Samples were then washed with PBS and placed on glass slide for confocal imaging.

[3] = test system: endothelial and smooth muscle cells; assay: Expression of genes relevant to thrombosis; assay type: cell-based, Human; conditions: TNFα stimulation; both endothelial and smooth muscle cells
Procedure: (§1) Human endothelial cells were co-cultured with or without smooth muscle cells in the presence or absence of human-derived, region-specific hemodynamics. Endothelial cells were exposed to TNFα at various concentrations and incubated in human, platelet-free plasma supplemented by ALEXA FLUOR 488 (A488, a fluorescent dye)-labeled fibrinogen. Conversion of A488-fibrinogen to A488-fibrin and deposition on the endothelium was quantified by confocal microscopy.
FIG. 2B depicts a heat map of relative gene expression in endothelial and smooth muscle cells (grown under atheroprone or atheroprotective conditions; see FIG. 2A) of several genes relevant to thrombosis. The relative changes in gene expression of Tissue Factor (F3) and Thrombomodulin (THBD) are presented below the heat map. Atheroprone hemodynamics up-regulate Tissue Factor (F3) compared to atheroprotective shear stress. […] In addition, TNFα stimulation reduces Tissue Factor Pathway Inhibitor (TFPI) in both endothelial and smooth muscle cells.

[4] = test system: Endothelial/smooth muscle cell co-cultures; assay: Coculture thrombosis assay with shear stress, Protocol A (fibrin deposition); assay type: cell-based, Human; conditions: atheroprone hemodynamics vs static cultures
Procedure: as §1
Following 24 hours of shear stress application (atheroprone or atheroprotective), the media was supplemented with TNFα at a concentration of 0.05 ng/mL or 0.10 ng/mL and shear stress was continued for an additional 24 hours, as shown in FIG. 3A. Media was then removed from both the upper and lower chambers, and both the endothelial cells and smooth muscle cells are washed twice with PBS. Endothelial cells were then incubated for 15 minutes at 37° C. with PFP supplemented with 37.5 μg/mL ALEXA-488 human fibrinogen, 20 μg/mL corn trypsin inhibitor, and 10 mM calcium, and fixed and imaged as described above for monocultures.

endothelial cells [5] = assay: TNFα in hemodynamic environment: gene expression; assay type: cell-based; conditions: 0.1-1 ng/ml TNFα; atheroprone hemodynamic forces; not seen at same levels in static cultures
Procedure: Following 24 hours of shear stress preconditioning with atheroprotective or atheroprone hemodynamic forces, TNFα was added to upper volume (containing the endothelial cells) at a concentration of 0.05-1 ng/ml (see FIG. 5). This concentration of TNFα is similar to plasma concentrations of TNFα observed in patients with cardiovascular disease. Shear stress application was continued for an additional 24 hours in the presence of TNFα.

[6] = test system: endothelial cells and smooth muscle cells; assay: Hypertension model gene array analysis; assay type: cell-based; conditions: healthy and atheroprone conditions
Procedure: ANG2 at a concentration of 10 nM (10.46 ng/ml) or a DMSO vehicle control (VEH) was added to the upper volume and RNA was collected for gene array analysis.
Aldosterone at a concentration of 1 mM or a vehicle control (VEH) was added to the upper volume and RNA was collected for gene array analysis

[7] = test system: endothelial cell/smooth muscle cell co-cultures; assay: HDL in hemodynamic environment; assay type: cell-based; conditions: HDL at 45 μg/ml or 90 μg/ml; hemodynamic shear stress
Procedure: An additional component of plasma cholesterol distinct from nLDL or oxLDL is HDL. […] HDL was then added to the upper volume at a concentration of 45-1,000 μg/ml. This broad range reflects the broad range of HDL concentrations that can exist within human patients. HDL concentrations in individuals at risk for vascular disease are generally less than about 300 μg/ml, while HDL concentrations in healthy individuals range from greater than about 300 μg/ml up to about 2,000 μg/ml in healthy exercising patients.
In additional experiments, endothelial cell/smooth muscle cell co-cultures plated as described above were preconditioned for 16 hours with hemodynamic shear stress. From hours 16-24 the cells were additionally primed with 0.05 ng/ml TNFα and 50 μg/ml of oxLDL (compared to a vehicle control containing 50 μg/ml nLDL) in the upper volume. At 24 hours, 45 μg/ml or 90 μg/ml HDL was added to the media in the upper volume and hemodynamic shear stress was continued for the next 24 hours (hours 24-48).

primary rat hepatocytes [8] = assay: Toxicity to hepatocytes under controlled flow during Cyp induction; conditions: 50 μM dexamethasone, concentration recommended for static cultures
Procedure: Cytochrome p450 assays were done on day 7 using commercially available P450-GLO kits. After 4 hours the media was transferred to 96-well plates and assayed for luminescent metabolites to reflect cytochrome p450 activity.

cytochrome p450 3A = assay: Cytochrome p450 activity assay (P450-GLO), 3A; assay type: in vitro ADME, rat; conditions: controlled hemodynamics; dexamethasone 02.5 μM, 48 hours; DMSO 11.64
Procedure: as §3, §4

[9] = test system: endothelial cells and smooth muscle cells; assay: oxLDL in hemodynamic environment: gene array, gene, protein and cytokine expression; assay type: cell-based; conditions: for number of genes regulated as compared to cells treated with nLDL: atheroprone, 50 μg/ml oxLDL vs 50 μg/ml nLDL
Procedure: Following 16-24 hours of shear stress preconditioning with atheroprotective or atheroprone hemodynamic forces, oxLDL was added to upper volume (containing the endothelial cells) at a concentration of 10-50 μg/ml (FIG. 5). In devices not receiving oxLDL, nLDL was added to the upper volume at the same concentration and used as a vehicle control. This concentration of oxLDL is similar to plasma concentrations of oxLDL observed in patients with cardiovascular disease. Shear stress application was continued for an additional 24 hours in the presence of oxLDL.
(§2) Five different donor pairs were used to analyze the oxLDL (50 μg/ml) response compared to nLDL (50 μg/ml) within the atheroprone hemodynamic environment in endothelial cells and smooth muscle cells. […] Significant genes were considered using an FDR of 0.01. Gene expression results are reported as the relative expression of the gene as compared to the expression of β-2 microglobulin (B2M). Protein expression results are reported as the relative expression of the protein as compared to the expression of actin. Activity of NFκB was assessed using an adenovirus NFκB-luciferase (Ad-NFκB-luc) reporter infected in ECs and SMCs.

NFκB = assay: NFκB-luciferase reporter (Ad-NFκB-luc); assay type: cell-based; conditions: smooth muscle cells; oxLDL added to upper volume only
Procedure: as §2

endothelial cells [10] = assay: oxLDL and TNFα in hemodynamic environment: RT-PCR gene expression; assay type: cell-based; conditions: atheroprone shear stress, 50 μg/ml oxLDL without or with 0.05 ng/ml TNFα
Procedure: To emulate more inflammatory stages of atherosclerosis, it is desirable to combine multiple circulating factors to better emulate the complexity found within human blood vessels. […] The media in the upper volume was then exchanged for media containing 0.05 ng/ml TNFα and 50 μg/ml of oxLDL. Media containing only 50 μg/ml of nLDL was used as a control.
Following 24 hours of shear stress preconditioning with atheroprotective or atheroprone hemodynamic forces, 50 μg/ml of oxLDL and 0.05 ng/ml of TNFα were added to upper volume (containing the endothelial cells). This concentration of TNFα is similar to plasma concentrations of TNFα observed in patients with cardiovascular disease. In devices not receiving oxLDL, nLDL was added to the upper volume at the same concentration and used as a vehicle control. Shear stress application was continued for an additional 24 hours in the presence of TNF-α and oxLDL (see FIG. 5). Gene expression analysis was performed using RT-PCR.

[11] = test system: primary human hepatocytes; conditions: 72 h
Procedure: Hepatocytes were then incubated with medium containing 1 mg/ml of MTT reagent (thiazolyl blue tetrazolium bromide) for 1 hour, following which the cells were lysed in DMSO to release the formazan blue dye formed. The solution was transferred to a 96 well plate and the absorbance was read at 595 nm.

primary rat hepatocytes [12] = assay: miRNA122 assay; assay type: cell-based; conditions: static conditions; chlorpromazine 1 μM, 4 hours
Procedure: The hepatocytes were then washed with PBS and incubated with serum free hepatocyte medium with or without known toxic drug chlorpromazine (CPZ) at two different concentrations (1 μM and 10 μM) for 4 hours. Supernatants from the cells were collected and microRNA extraction was performed using the MIRNEASY serum/plasma kit (a kit for extracting microRNA, Qiagen). The cDNA was prepared by using the MISCRIPTII RT kit (a kit for preparing cDNA, Qiagen) and samples quantified using the MISCRIPT SYBR GREEN PCR kit (a kit for quantifying cDNA, Qiagen), following the manufacturer's instructions.
The hepatocytes were washed with PBS and immediately incubated with either vehicle (distilled water) or chlorpromazine (1 μM) for 4 hours. The supernatant was collected and miRNA 122 levels were measured as described above.

[13] = test system: primary human hepatocytes; conditions: 1 μM chlorpromazine; controlled hemodynamic conditions relative to static controls
[14] = No substrate, 4 hours, controlled hemodynamics
[15] = substrate Glycerol (2 mM), 4 hours
[16] = substrate Lactate/Pyruvate (20 mM/2 mM), 4 hours
[17] = substrates lactate and pyruvate
[18] = atheroprone hemodynamic environment

## insulin
Primary rat hepatocytes [1]; [14]
  Effect (% Change) on glucose levels: −27%
Primary rat hepatocytes [1]; absence of a substrate
  glucose levels: decreased by (insulin) / increased by (glucagon): 27%
Primary rat hepatocytes [1]; [15]
  Effect (% Change) on glucose levels: −38%
Primary rat hepatocytes [1]; [16]
  Effect (% Change) on glucose levels: −25%
Primary rat hepatocytes [1]
  glucose levels: decreased by (insulin) / increased by further (glucagon): 38%
Primary rat hepatocytes [1]; [17]
  glucose levels: decreased by (insulin) / increased by (glucagon): 25%

## Cc1ccc2cc3c(ccc4ccccc43)c3c2c1CC3 [3-MC, 3-Methyl Cholanthrene]
Cytochrome p450 1A/1B; controlled hemodynamics (0.1 μM) vs static (1 μM)
  induction responses seen at lower levels under controlled hemodynamics: 10 fold
Cytochrome p450 1A/1B; controlled hemodynamics, 3-MC 0.1 μM, 48 hours, DMSO 4.87
  1A/1B response (cytochrome p450 activity normalized to ATP content): 133.06

## Cc1c(C)c2c(c(C)c1O)CCC(C)(COc1ccc(CC3SC(=O)NC3=O)cc1)O2 (stereo not shown) [troglitazone]
Rat hepatocytes
  oxidative stress-related genes and MRP3 and MRP4 genes: upregulation
Primary rat hepatocytes [2]; troglitazone 4 uM
  changes in the canalicular pattern (cholestatic changes): visibly dilated canalicular structures
Primary rat hepatocytes [2]; troglitazone 40 uM
  changes in the canalicular pattern (cholestatic changes): much more prominent and extensive

## tumor necrosis factor-α [TNFα]
[3]
  Tissue Factor Pathway Inhibitor (TFPI) expression: reduces
[4]
  lower levels of TNFα to induce fibrin deposition as compared to static cultures: 100- to 200 fold
Endothelial cells [5]
  inflammatory response (expression of E-Selectin, ICAM, VCAM, IL8): induced an inflammatory response

## Angiotensin II (DRVYIHPF; Angiotensin-2; UniProt P01019 25-32, looked up) [ANG2]
[6]; ANG2 10 nM (10.46 ng/ml) vs DMSO vehicle
  inflammatory genes (gene array): upregulated

## high-density lipoprotein [HDL]
[7]
  atheroprotective and pro-inflammatory gene and protein activation: activates many atheroprotective genes while blocking activation of pro-inflammatory genes and proteins

## C[C@@H]1C[C@H]2[C@@H]3CCC4=CC(=O)C=C[C@]4(C)[C@@]3(F)[C@@H](O)C[C@]2(C)[C@@]1(O)C(=O)CO [Dexamethasone, dexamethasone]
Primary rat hepatocytes [8]
  toxicity in the controlled flow system: toxic
Cytochrome p450 3A
  3A response (cytochrome p450 activity normalized to ATP content): 57.53

## C[C@]12CCC(=O)C=C1CC[C@@H]1[C@@H]2[C@@H](O)C[C@]2(C=O)[C@@H](C(=O)CO)CC[C@@H]12 [aldosterone]
[6]; Aldosterone 1 mM vs vehicle
  inflammatory genes (gene array): upregulated

## OCC(O)CO [Glycerol, glycerol]
Primary rat hepatocytes [1]; Glycerol 2 mM, no hormone, 4 hours
  change in glucose produced with substrate alone: Glycerol (+67%)
Primary rat hepatocytes [1]; substrate glycerol (2 mM) alone
  glucose produced by the hepatocytes increased by: 67%

## oxidized low-density lipoprotein [oxLDL]
[9]; atheroprone conditions
  atheroprotective signaling (eNOS and KLF2) gene expression: reduced
[9]; atheroprone conditions, not regulated in traditional static cultures
  inflammatory genes IL8 and E-Selectin (SELE) expression: activate
[9]; [18]
  levels of secreted cytokines (IL6, IL8, MCP-1): increased
  phosphorylation of atheroprotective eNOS signaling: reduced
[9]; endothelial cells, 5 donors
  number of genes regulated as compared to cells treated with nLDL: 688 genes
[9]; smooth muscle cells, 4 donors
  number of genes regulated as compared to cells treated with nLDL: 304 genes
NFκB
  NFκB signaling (luciferase reporter): elevated
Endothelial cells [10]
  eNOS gene expression (NOS3): reduced
Endothelial cells [10]; control nLDL
  E-Selectin (SELE) gene expression: higher levels

## CN(C)CCCN1c2ccccc2Sc2ccc(Cl)cc21 [chlorpromazine]
[11]; 1 μM
  toxicity: 30.3%
[11]; 10 μM
  toxicity: 46.4%
Primary rat hepatocytes [12]
  miRNA 122 levels in the supernatants compared to vehicle controls: did not cause any change
[13]
  upregulation of APEX nuclease gene: 2.8 fold
  upregulation of glutathione reductase (GSR) gene: 8.3 fold
  upregulation of sorbitol dehydrogenase (SORD) gene: 6.9 fold
  upregulation of thioredoxin reductase 1 (TXNRD1) gene: 5.5 fold

## glucagon
Primary rat hepatocytes [1]; [14]
  Effect (% Change) on glucose levels: +51%
Primary rat hepatocytes [1]; absence of a substrate
  glucose levels: decreased by (insulin) / increased by (glucagon): 51%
Primary rat hepatocytes [1]; [15]
  Effect (% Change) on glucose levels: +15%
Primary rat hepatocytes [1]; [16]
  Effect (% Change) on glucose levels: +80%
Primary rat hepatocytes [1]
  glucose levels: decreased by (insulin) / increased by further (glucagon): 15%
Primary rat hepatocytes [1]; [17]
  glucose levels: decreased by (insulin) / increased by (glucagon): 80%
